This note sets out measurements from patent US10160748B2 (AbbVie Inc., priority 2015, dated 2018).

Some results are limits rather than exact numbers.

This assay has as its target TNFα trimer (Homo sapiens, UniProt P01375). Briefly: TNFα FP Competitive Binding Assay. As to conditions: FP binding assay; 20 nM TNFα trimer, 1 nM OregonGreen488 probe; read-out: TNF IC50. A digest of the protocol:
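Fluorescence polarization competition: 20 nM TNFα trimer with 1 nM fluorescein-labelled probe in HEPES/NaCl/EDTA/Triton X-100 buffer, compound in 12-point 1:3 dilutions (final top 338 μM or 100 μM). Incubated 18-24 h, background-subtracted mP read, variable-slope dose-response fitting.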

Sequence of TNFα trimer (P01375 77-233 limits assumed): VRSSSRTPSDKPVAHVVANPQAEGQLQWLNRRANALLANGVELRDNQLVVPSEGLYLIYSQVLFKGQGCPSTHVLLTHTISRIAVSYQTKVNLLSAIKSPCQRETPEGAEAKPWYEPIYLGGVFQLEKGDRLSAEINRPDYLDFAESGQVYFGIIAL

Regarding `C[C@@H]1CN(c2ncc(-c3cc4c(cc3F)c(=O)n(C)n4Cc3ccccc3OC(F)F)cn2)CCN1C(=O)CO` [Example 59, (R)-1-(2-(Difluoromethoxy)benzyl)-5-fluoro-6-(2-(4-(2-hydroxyacetyl)-3-methylpiperazin-1-yl)pyrimidin-5-yl)-2-methyl-1H-indazol-3(2H)-one], the IC50 is less than 1000 nM.
`C[C@@H]1CN(c2ccc(-c3cc4c(cc3F)c(=O)n(C)n4Cc3ccccc3OC(F)F)cn2)CCN1C(=O)CO` [Example 60, (R)-1-(2-(Difluoromethoxy)benzyl)-5-fluoro-6-(6-(4-(2-hydroxyacetyl)-3-methylpiperazin-1-yl)pyridin-3-yl)-2-methyl-1H-indazol-3(2H)-one]: the concentration for half-maximal inhibition (IC50) was less than 1000 nM.
`CC(=O)N1CCN(c2ncc(-c3ccc4c(=O)n(C)n(Cc5nc(CC#N)ccc5C(F)(F)F)c4c3)cn2)C[C@H]1C` [Example 61, (R)-2-(6-((6-(2-(4-Acetyl-3-methylpiperazin-1-yl)pyrimidin-5-yl)-2-methyl-3-oxo-2,3-dihydro-1H-indazol-1-yl)methyl)-5-(trifluoromethyl)pyridin-2-yl)acetonitrile]: the IC50 is less than 1000 nM.
Then `[2H]C([2H])([2H])n1c(=O)c2ccc(-c3cnc(N4CCN(C(=O)CO)[C@H](C)C4)nc3)cc2n1Cc1cc(C)ccc1OC(F)F` [Example 62, (R)-1-(2-(Difluoromethoxy)-5-methylbenzyl)-6-(2-(4-(2-hydroxyacetyl)-3-methylpiperazin-1-yl)pyrimidin-5-yl)-2-(methyl-d3)-1H-indazol-3(2H)-one], with less than 1000 nM.
As for `[2H]C([2H])([2H])n1c(=O)c2ccc(-c3cnc(N4CCN(C(C)=O)[C@H](C)C4)nc3)cc2n1Cc1cc(C)ccc1OC(F)F` [Example 63, (R)-6-(2-(4-Acetyl-3-methylpiperazin-1-yl)pyrimidin-5-yl)-1-(2-(difluoromethoxy)-5-methylbenzyl)-2-methyl-d3-1H-indazol-3(2H)-one], the 50% inhibitory concentration (IC50) was less than 1000 nM.
`CC(=O)N1CCN(c2ncc(-c3ccc4c(=O)n(C)n(Cc5cn(CCO)cc5C(F)(F)F)c4c3)cn2)C[C@H]1C` [Example 64, (R)-6-(2-(4-Acetyl-3-methylpiperazin-1-yl)pyrimidin-5-yl)-1-((1-(2-hydroxyethyl)-4-(trifluoromethyl)-1H-pyrrol-3-yl)methyl)-2-methyl-1H-indazol-3(2H)-one]: the concentration for half-maximal inhibition (IC50) is less than 1000 nM.
Take `CC(=O)N1CCN(c2ncc(-c3ccc4c(=O)n(C)n(Cc5c(CO)cccc5OC(F)F)c4c3)cn2)[C@H](C)C1` [Example 65, (R)-6-(2-(4-acetyl-2-methylpiperazin-1-yl)pyrimidin-5-yl)-1-(2-(difluoromethoxy)-6-(hydroxymethyl)benzyl)-2-methyl-1H-indazol-3(2H)-one]: the IC50 is less than 1000 nM.
Then `Cn1c(=O)c2ccc(-c3cnc(N4CCN5C(=O)NC[C@@H]5C4)nc3)cc2n1Cc1c(CO)cccc1OC(F)F` [Example 66, (R)-7-(5-(1-(2-(difluoromethoxy)-6-(hydroxymethyl)benzyl)-2-methyl-3-oxo-2,3-dihydro-1H-indazol-6-yl)pyrimidin-2-yl)hexahydroimidazo[1,5-a]pyrazin-3(2H)-one], with less than 1000 nM; and `CN(C)C(=O)OCc1ccc(OC(F)F)c(Cn2c3cc(-c4cnc(N5CCN6C(=O)NC[C@@H]6C5)nc4)ccc3c(=O)n2C)c1` [Example 67, (R)-4-(Difluoromethoxy)-3-((2-methyl-3-oxo-6-(2-(3-oxohexahydroimidazo[1,5-a]pyrazin-7(1H)-yl)pyrimidin-5-yl)-2,3-dihydro-1H-indazol-1-yl)methyl)benzyldimethylcarbamate], with less than 1000 nM.
Then `Cn1c(=O)c2ccc(-c3cnc(N4CCN5C(=O)NC[C@@H]5C4)nc3)cc2n1Cc1cc(CC#N)ccc1OC(F)F` [Example 68, (R)-2-(4-(Difluoromethoxy)-3-((2-methyl-3-oxo-6-(2-(3-oxohexahydromidazo[1,5-a]pyrazin-7(1H)-yl)pyrimidin-5-yl)-2,3-dihydro-1H-indazol-1-yl)methyl)phenyl)acetonitrile], with less than 1000 nM.
As to `Cc1ccc(OC(F)F)c(Cn2c3cc(-c4cnc(N5CCN(C(=O)COP(=O)(O)O)[C@H](C)C5)nc4)ccc3c(=O)n2C)c1` [Example 69, (R)-2-(4-(5-(1-(2-(Difluoromethoxy)-5-methylbenzyl)-2-methyl-3-oxo-2,3-dihydro-1H-indazol-6-yl)pyrimidin-2-yl)-2-methyldihydrogen phosphate], the concentration for half-maximal inhibition (IC50) was less than 1000 nM.
For `COc1c(-c2cnc(N3CCN(C(=O)CO)[C@H](C)C3)nc2)ccc2c(=O)n(C)n(Cc3ccccc3OC(F)F)c12` [Example 70, (R)-1-(2-(Difluoromethoxy)benzyl)-6-(2-(4-(2-hydroxyacetyl)-3-methylpiperazin-1-yl)pyrimidin-5-yl)-7-methoxy-2-methyl-1H-indazol-3(2H)-one], the IC50 was less than 1000 nM.
As to `C[C@@H]1CN(c2ncc(-c3ccc4c(=O)n(C)n(Cc5ccccc5Cl)c4c3C#N)cn2)CCN1C(=O)CO` [Example 71, (R)-1-(2-Chlorobenzyl)-6-(2-(4-(2-hydroxyacetyl)-3-methylpiperazin-1-yl)pyrimidin-5-yl)-2-methyl-3-oxo-2,3-dihydro-1H-indazole-7-carbonitrile], the IC50 is 1000 to 10000 nM.
Take `Cn1cc(C(F)(F)F)c(Cn2c3cc(-c4cnc(N5CCN6C(=O)NC[C@H]6C5)nc4)ccc3c(=O)n2C)n1` [Example 72, (S)-7-(5-(2-methyl-1-((1-methyl-4-(trifluoromethyl)-1H-pyrazol-3-yl)methyl)-3-oxo-2,3-dihydro-1H-indazol-6-yl)pyrimidin-2-yl)hexahydroimidazo[1,5-a]pyrazin-3(2H)-one]: the IC50 was in the range of 1000 to 10000 nM.
Turning to `CC(=O)N1CCN(c2ncc(-c3ccc4c(=O)n(C)n(Cc5nc(C)ccc5C(F)(F)F)c4n3)cn2)C[C@H]1C` [Example 73, (R)-6-(2-(4-Acetyl-3-methylpiperazin-1-yl)pyrimidin-5-yl)-2-methyl-1-((6-methyl-3-(trifluoromethyl)pyridin-2-yl)methyl)-1H-pyrazolo[3,4-b]pyridin-3(2H)-one], the IC50 is less than 1000 nM.
As to `CC(=O)N1CCN(c2ncc(-c3ccc4c(=O)n(C)n(Cc5nc(C)ccc5C(F)(F)F)c4c3)cn2)[C@H](C)C1` [Example 74, (R)-6-(2-(4-Acetyl-2-methylpiperazin-1-yl)pyrimidin-5-yl)-2-methyl-1-((6-methyl-3-(trifluoromethyl)pyridin-2-yl)methyl)-1H-indazol-3(2H)-one], the half-inhibitory concentration (IC50) was less than 1000 nM.
On to `CC(=O)N1CCN(c2ncc(-c3ccc4c(=O)n(C)n(Cc5nc(C)ccc5OC(F)F)c4c3)cn2)C[C@H]1C` [Example 75, (R)-6-(2-(4-Acetyl-3-methylpiperazin-1-yl)pyrimidin-5-yl)-1-((3-(difluoromethoxy)-6-methylpyridin-2-yl)methyl)-2-methyl-1H-indazol-3(2H)-one], for which the 50% inhibitory concentration (IC50) is less than 1000 nM.
For `Cc1ccc(OC(F)F)c(Cn2c3cc(-c4cnc(N5CCN(C(=O)CO)[C@H](C)C5)nc4)ccc3c(=O)n2C)n1` [Example 76, (R)-1-((3-(Difluoromethoxy)-6-methylpyridin-2-yl)methyl)-6-(2-(4-(2-hydroxyacetyl)-3-methylpiperazin-1-yl)pyrimidin-5-yl)-2-methyl-1H-indazol-3(2H)-one], the concentration for half-maximal inhibition (IC50) is less than 1000 nM.
Turning to `COCc1cccc(OC(F)F)c1Cn1c2cc(-c3cnc(C(C)(C)O)nc3)ccc2c(=O)n1C` [Example 77, 1-(2-(Difluoromethoxy)-6-(methoxymethyl)benzyl)-6-(2-(2-hydroxypropan-2-yl)pyrimidin-5-yl)-2-methyl-1H-indazol-3(2H)-one], the IC50 lay in the range of 1000 to 10000 nM.
On to `C[C@@H]1CN(C(=O)CO)CCN1c1ncc(-c2ccc3c(=O)n(C)n(Cc4cc(CC#N)ccc4OC(F)F)c3c2)cn1` [Example 78, (R)-2-(4-(difluoromethoxy)-3-((6-(2-(4-(2-hydroxyacetyl)-2-methylpiperazin-1-yl)pyrimidin-5-yl)-2-methyl-3-oxo-2,3-dihydro-1H-indazol-1-yl)methyl)phenyl)acetonitrile], for which the IC50 is less than 1000 nM.
`Cn1c(=O)c2ccc(-c3cnc(N4CCN5C(=O)OC[C@H]5C4)nc3)cc2n1Cc1cc(CC#N)ccc1OC(F)F` [Example 79, (R)-2-(4-(Difluoromethoxy)-3-((2-methyl-3-oxo-6-(2-(3-oxotetrahydro-1H-oxazolo[3,4-a]pyrazin-7(3H)-yl)pyrimidin-5-yl)-2,3-dihydro-1H-indazol-1-yl)methyl)phenyl)acetonitrile]: the IC50 was less than 1000 nM.
Then `Cc1ccc(OC(F)F)c(Cn2c3nc(-c4cnc(N5CCN(C(=O)CO)C[C@H]5C)nc4)ccc3c(=O)n2C)c1` [Example 80, (R)-1-(2-(Difluoromethoxy)-5-methylbenzyl)-6-(2-(4-(2-hydroxyacetyl)-2-methylpiperazin-1-yl)pyrimidin-5-yl)-2-methyl-1H-pyrazolo[3,4-b]pyridin-3(2H)-one], with less than 1000 nM; and `Cc1ccc(Cl)c(Cn2c3nc(-c4cnc(N5CCN(C(=O)CO)C[C@H]5C)nc4)ccc3c(=O)n2C)c1` [Example 81, (R)-1-(2-Chloro-5-methylbenzyl)-6-(2-(4-(2-hydroxyacetyl)-2-methylpiperazin-1-yl)pyrimidin-5-yl)-2-methyl-1H-pyrazolo[3,4-b]pyridin-3(2H)-one], with less than 1000 nM.
In the case of `CC(=O)N1CCN(c2ncc(-c3ccc4c(=O)n(C)n(Cc5ccc(C)cc5SC(F)F)c4c3)cn2)C[C@H]1C` [Example 82, (R)-6-(2-(4-Acetyl-3-methylpiperazin-1-yl)pyrimidin-5-yl)-1-(2-((difluoromethyl)thio)-4-methylbenzyl)-2-methyl-H-indazol-3(2H)-one] it was less than 1000 nM; in that of `CN1CCCC(Nc2ccc(Cl)c(Cn3c4cc(-c5cnc(C(C)(C)O)nc5)ccc4c(=O)n3C)c2)C1=O` (centres unmarked) [Example 83, 1-(2-Chloro-5-((1-methyl-2-oxopiperidin-3-yl)amino)benzyl)-6-(2-(2-hydroxypropan-2-yl)pyrimidin-5-yl)-2-methyl-1H-indazol-3(2H)-one], 1000 to 10000 nM.
In the case of `Cn1c(=O)c2ccc(-c3cnc(N4CCN5C(=O)NC[C@@H]5C4)nc3)cc2n1Cc1nc(CO)ccc1OC(F)F` [Example 84], the IC50 is less than 1000 nM.

Usually IC50 stands for the concentration that inhibits the measured activity by half.
